Experimental data: patent publication US9663460B2, “Sulfur derivatives as chemokine receptor modulators” (ALLERGAN, INC., priority 2010, dated 2017)

biological target: CCR2 (Homo sapiens (Human), UniProt P41597); assay: Calcium activity assayed on the FLIPR Tetra in HEK-Gqi5 cells stably expressing CCR2; type: cell-based; settings: FLIPR Tetra calcium assay
Sequence (P41597 whole entry, species assumed): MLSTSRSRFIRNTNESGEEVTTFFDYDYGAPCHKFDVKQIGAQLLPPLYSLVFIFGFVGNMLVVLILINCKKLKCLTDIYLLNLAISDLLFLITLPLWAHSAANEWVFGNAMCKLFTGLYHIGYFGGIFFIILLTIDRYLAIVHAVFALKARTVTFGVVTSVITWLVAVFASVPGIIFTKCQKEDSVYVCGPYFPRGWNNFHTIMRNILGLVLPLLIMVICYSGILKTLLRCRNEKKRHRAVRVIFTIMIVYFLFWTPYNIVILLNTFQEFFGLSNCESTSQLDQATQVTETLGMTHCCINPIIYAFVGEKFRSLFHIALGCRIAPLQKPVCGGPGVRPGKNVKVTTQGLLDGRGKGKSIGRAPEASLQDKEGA

Going from `CSc1ccc(Cl)cc1NS(=O)(=O)c1cccs1` [N-[5-chloro-2-(methylthio)phenyl]thiophene-2-sulfonamide] to `NCCSc1ccc(Cl)cc1NS(=O)(=O)c1ccc(Cl)c(C(F)(F)F)c1` [N-{2-[(2-aminoethyl)thio]-5-chlorophenyl}-4-chloro-3-(trifluoromethyl)benzenesulfonamide], the “CCR2 % ANTAGONISM” value rises from 0% to 97%.

First: Nc1ccccc1C[S+]([O-])c1ccc(Cl)cc1NS(=O)(=O)c1cc2ccccc2o1 (centres unmarked) [N-{2-[(2-aminobenzyl)sulfinyl]-5-chlorophenyl}-1-benzofuran-2-sulfonamide]
Second: Nc1ccccc1CSc1ccc(Cl)cc1NS(=O)(=O)c1cc2ccccc2o1 [N-{2-[(2-aminobenzyl)thio]-5-chlorophenyl}-1-benzofuran-2-sulfonamide]
The “CCR2 % ANTAGONISM” value of the first is higher: 93% for the first, 91% for the second.

First: Nc1ccccc1CS(=O)(=O)c1ccc(Cl)cc1NS(=O)(=O)c1cc2ccccc2o1 [N-{2-[(2-aminobenzyl)sulfonyl]-5-chlorophenyl}-1-benzofuran-2-sulfonamide]
Second: Nc1cccc(CS(=O)(=O)c2ccccc2NS(=O)(=O)c2cc3ccccc3o2)c1 [N-{2-[(3-aminobenzyl)sulfonyl]phenyl}-1-benzofuran-2-sulfonamide]
The “CCR2 % ANTAGONISM” value of the first is higher: 98% for the first, 94% for the second.

Going from `NCC[S+]([O-])c1ccc(Cl)cc1NS(=O)(=O)c1ccc(Cl)c(C(F)(F)F)c1` (centres unmarked) [N-{2-[(2-aminoethyl)sulfinyl]-5-chlorophenyl}-4-chloro-3-(trifluoromethyl)benzenesulfonamide] to `Nc1cccc(C[S+]([O-])c2ccc(Cl)cc2NS(=O)(=O)c2ccc(Cl)cc2)c1` (centres unmarked) [N-{2-[(3-aminobenzyl)sulfinyl]-5-chlorophenyl}-4-chlorobenzenesulfonamide], the “CCR2 % ANTAGONISM” value rises from 84% to 99%.

First: Nc1cccc(C[S+]([O-])c2ccc(Cl)cc2NS(=O)(=O)c2ccc(F)cc2F)c1 (centres unmarked) [N-{2-[(3-aminobenzyl)sulfinyl]-5-chlorophenyl}-2,4-difluorobenzenesulfonamide]
Second: Nc1cccc(C[S+]([O-])c2ccc(Cl)cc2NS(=O)(=O)c2ccc(Cl)cc2F)c1 (centres unmarked) [N-{2-[(3-aminobenzyl)sulfinyl]-5-chlorophenyl}-4-chloro-2-fluorobenzenesulfonamide]
The “CCR2 % ANTAGONISM” value of the first is higher: 99% for the first, 95% for the second.

Compared with `Nc1cccc(C[S+]([O-])c2ccc(Cl)cc2NS(=O)(=O)c2ccccc2)c1` (centres unmarked) [N-{2-[(3-aminobenzyl)sulfinyl]-5-chlorophenyl}benzenesulfonamide], `Nc1cccc(CSc2ccc(Cl)cc2NS(=O)(=O)c2ccccc2)c1` [N-{2-[(3-aminobenzyl)thio]-5-chlorophenyl}benzenesulfonamide] is lower in “CCR2 % ANTAGONISM” value: 62% for the first, 40% for the second.

First: Nc1cccc(C[S+]([O-])c2ccc(F)cc2NS(=O)(=O)c2cc3ccccc3o2)c1 (centres unmarked) [N-{2-[(3-aminobenzyl)sulfinyl]-5-fluorophenyl}-1-benzofuran-2-sulfonamide]
Second: COc1ccc([S+]([O-])Cc2cccc(N)c2)c(NS(=O)(=O)c2cc3ccccc3o2)c1 (centres unmarked) [N-{2-[(3-aminobenzyl)sulfinyl]-5-methoxyphenyl}-1-benzofuran-2-sulfonamide]
The “CCR2 % ANTAGONISM” value of the first is lower: 91% for the first, 100% for the second.

First: Nc1cccc(C[S+]([O-])c2ccccc2NS(=O)(=O)c2cc3ccccc3o2)c1 (centres unmarked) [N-{2-[(3-aminobenzyl)sulfinyl]phenyl}-1-benzofuran-2-sulfonamide]
Second: Nc1cccc(CSc2ccc(F)cc2NS(=O)(=O)c2cc3ccccc3o2)c1 [N-{2-[(3-aminobenzyl)thio]-5-fluorophenyl}-1-benzofuran-2-sulfonamide]
The “CCR2 % ANTAGONISM” value of the first is higher: 110% for the first, 97% for the second.

Going from `Nc1cccc(CS(=O)(=O)c2ccc(Cl)cc2NS(=O)(=O)c2ccc(F)cc2F)c1` [N-{2-[(3-aminobenzyl)sulfonyl]-5-chlorophenyl}-2,4-difluorobenzenesulfonamide] to `Nc1cccc(CS(=O)(=O)c2ccc(Cl)cc2NS(=O)(=O)c2ccc(Cl)cc2F)c1` [N-{2-[(3-aminobenzyl)sulfonyl]-5-chlorophenyl}-4-chloro-2-fluorobenzenesulfonamide], the “CCR2 % ANTAGONISM” value rises from 89% to 96%.

Compared with `Nc1cccc(CS(=O)(=O)c2ccc(Cl)cc2NS(=O)(=O)c2ccc(Cl)cc2)c1` [N-{2-[(3-aminobenzyl)sulfonyl]-5-chlorophenyl}-4-chlorobenzenesulfonamide], `Nc1cccc(CS(=O)(=O)c2ccc(Cl)cc2NS(=O)(=O)c2ccccc2)c1` [N-{2-[(3-aminobenzyl)sulfonyl]-5-chlorophenyl}benzenesulfonamide] is lower in “CCR2 % ANTAGONISM” value: 99% for the first, 52% for the second.

First: Nc1cccc(CS(=O)(=O)c2ccc(F)cc2NS(=O)(=O)c2cc3ccccc3o2)c1 [N-{2-[(3-aminobenzyl)sulfonyl]-5-fluorophenyl}-1-benzofuran-2-sulfonamide]
Second: COc1ccc(S(=O)(=O)Cc2cccc(N)c2)c(NS(=O)(=O)c2cc3ccccc3o2)c1 [N-{2-[(3-aminobenzyl)sulfonyl]-5-methoxyphenyl}-1-benzofuran-2-sulfonamide]
The “CCR2 % ANTAGONISM” value of the first is lower: 90% for the first, 107% for the second.

Going from `Nc1cccc(CSc2ccc(Cl)cc2NS(=O)(=O)c2ccc(F)cc2F)c1` [N-{2-[(3-aminobenzyl)thio]-5-chlorophenyl}-2,4-difluorobenzenesulfonamide] to `Nc1cccc(CSc2ccc(Cl)cc2NS(=O)(=O)c2ccc(Cl)cc2F)c1` [N-{2-[(3-aminobenzyl)thio]-5-chlorophenyl}-4-chloro-2-fluorobenzenesulfonamide], the “CCR2 % ANTAGONISM” value rises from 64% to 88%.

`Nc1cccc(CSc2ccc(Cl)cc2NS(=O)(=O)c2cccc(Cl)c2)c1` [N-{2-[(3-aminobenzyl)thio]-5-chlorophenyl}-3-chlorobenzenesulfonamide] and `Nc1cccc(CSc2ccc(Cl)cc2NS(=O)(=O)c2ccc(Cl)cc2)c1` [N-{2-[(3-aminobenzyl)thio]-5-chlorophenyl}-4-chlorobenzenesulfonamide] are the same in “CCR2 % ANTAGONISM” value: 95% for the first, 95% for the second.

For `COc1ccc(SCc2cccc(N)c2)c(NS(=O)(=O)c2cc3ccccc3o2)c1` [N-{2-[(3-aminobenzyl)thio]-5-methoxyphenyl}-1-benzofuran-2-sulfonamide], the “CCR2 % ANTAGONISM” value was 100%.

`Nc1ccccc1C[S+]([O-])c1ccc(Cl)cc1NS(=O)(=O)c1cc2ccccc2o1` (centres unmarked) [N-{2-[(2-aminobenzyl)sulfinyl]-5-chlorophenyl}-1-benzofuran-2-sulfonamide] and `Nc1ccccc1CSc1ccc(Cl)cc1NS(=O)(=O)c1cc2ccccc2o1` [N-{2-[(2-aminobenzyl)thio]-5-chlorophenyl}-1-benzofuran-2-sulfonamide] are within 1.5-fold of each other in IC50: 0.115 µM for the first, 0.1 µM for the second.

First: Nc1ccccc1CS(=O)(=O)c1ccc(Cl)cc1NS(=O)(=O)c1cc2ccccc2o1 [N-{2-[(2-aminobenzyl)sulfonyl]-5-chlorophenyl}-1-benzofuran-2-sulfonamide]
Second: Nc1cccc(CS(=O)(=O)c2ccccc2NS(=O)(=O)c2cc3ccccc3o2)c1 [N-{2-[(3-aminobenzyl)sulfonyl]phenyl}-1-benzofuran-2-sulfonamide]
The IC50 of the first is 3.1-fold higher: 0.129 µM for the first, 0.041 µM for the second. The second is the more potent here.

First: NCC[S+]([O-])c1ccc(Cl)cc1NS(=O)(=O)c1ccc(Cl)c(C(F)(F)F)c1 (centres unmarked) [N-{2-[(2-aminoethyl)sulfinyl]-5-chlorophenyl}-4-chloro-3-(trifluoromethyl)benzenesulfonamide]
Second: NCCSc1ccc(Cl)cc1NS(=O)(=O)c1ccc(Cl)c(C(F)(F)F)c1 [N-{2-[(2-aminoethyl)thio]-5-chlorophenyl}-4-chloro-3-(trifluoromethyl)benzenesulfonamide]
The IC50 of the first is 3.3-fold higher: 3.53 µM for the first, 1.07 µM for the second. The second is the more potent here.

Going from `Nc1cccc(C[S+]([O-])c2ccc(Cl)cc2NS(=O)(=O)c2ccc(F)cc2F)c1` (centres unmarked) [N-{2-[(3-aminobenzyl)sulfinyl]-5-chlorophenyl}-2,4-difluorobenzenesulfonamide] to `Nc1cccc(C[S+]([O-])c2ccc(Cl)cc2NS(=O)(=O)c2ccc(Cl)cc2F)c1` (centres unmarked) [N-{2-[(3-aminobenzyl)sulfinyl]-5-chlorophenyl}-4-chloro-2-fluorobenzenesulfonamide], the IC50 falls from 0.443 µM to 0.113 µM (3.9-fold).

Going from `Nc1cccc(C[S+]([O-])c2ccc(Cl)cc2NS(=O)(=O)c2ccc(Cl)cc2)c1` (centres unmarked) [N-{2-[(3-aminobenzyl)sulfinyl]-5-chlorophenyl}-4-chlorobenzenesulfonamide] to `Nc1cccc(C[S+]([O-])c2ccc(Cl)cc2NS(=O)(=O)c2ccccc2)c1` (centres unmarked) [N-{2-[(3-aminobenzyl)sulfinyl]-5-chlorophenyl}benzenesulfonamide], the IC50 rises from 0.159 µM to 2.56 µM (16-fold). The first is the more potent here.

Going from `Nc1cccc(C[S+]([O-])c2ccc(F)cc2NS(=O)(=O)c2cc3ccccc3o2)c1` (centres unmarked) [N-{2-[(3-aminobenzyl)sulfinyl]-5-fluorophenyl}-1-benzofuran-2-sulfonamide] to `COc1ccc([S+]([O-])Cc2cccc(N)c2)c(NS(=O)(=O)c2cc3ccccc3o2)c1` (centres unmarked) [N-{2-[(3-aminobenzyl)sulfinyl]-5-methoxyphenyl}-1-benzofuran-2-sulfonamide], the IC50 rises from 0.038 µM to 0.085 µM (2.2-fold). The first is the more potent here.

`Nc1cccc(C[S+]([O-])c2ccccc2NS(=O)(=O)c2cc3ccccc3o2)c1` (centres unmarked) [N-{2-[(3-aminobenzyl)sulfinyl]phenyl}-1-benzofuran-2-sulfonamide] and `Nc1cccc(CSc2ccc(F)cc2NS(=O)(=O)c2cc3ccccc3o2)c1` [N-{2-[(3-aminobenzyl)thio]-5-fluorophenyl}-1-benzofuran-2-sulfonamide] are within 1.5-fold of each other in IC50: 0.058 µM for the first, 0.055 µM for the second.

Going from `Nc1cccc(CS(=O)(=O)c2ccc(Cl)cc2NS(=O)(=O)c2ccc(F)cc2F)c1` [N-{2-[(3-aminobenzyl)sulfonyl]-5-chlorophenyl}-2,4-difluorobenzenesulfonamide] to `Nc1cccc(CS(=O)(=O)c2ccc(Cl)cc2NS(=O)(=O)c2ccc(Cl)cc2F)c1` [N-{2-[(3-aminobenzyl)sulfonyl]-5-chlorophenyl}-4-chloro-2-fluorobenzenesulfonamide], the IC50 falls from 0.718 µM to 0.248 µM (2.9-fold).

Compared with `Nc1cccc(CS(=O)(=O)c2ccc(Cl)cc2NS(=O)(=O)c2ccc(Cl)cc2)c1` [N-{2-[(3-aminobenzyl)sulfonyl]-5-chlorophenyl}-4-chlorobenzenesulfonamide], `Nc1cccc(CS(=O)(=O)c2ccc(Cl)cc2NS(=O)(=O)c2ccccc2)c1` [N-{2-[(3-aminobenzyl)sulfonyl]-5-chlorophenyl}benzenesulfonamide] is 2.9-fold higher in IC50: 0.421 µM for the first, 1.24 µM for the second. The first is the more potent here.

Compared with `Nc1cccc(CS(=O)(=O)c2ccc(F)cc2NS(=O)(=O)c2cc3ccccc3o2)c1` [N-{2-[(3-aminobenzyl)sulfonyl]-5-fluorophenyl}-1-benzofuran-2-sulfonamide], `COc1ccc(S(=O)(=O)Cc2cccc(N)c2)c(NS(=O)(=O)c2cc3ccccc3o2)c1` [N-{2-[(3-aminobenzyl)sulfonyl]-5-methoxyphenyl}-1-benzofuran-2-sulfonamide] is 8-fold higher in IC50: 0.022 µM for the first, 0.176 µM for the second. The first is the more potent here.

`Nc1cccc(CSc2ccc(Cl)cc2NS(=O)(=O)c2ccc(F)cc2F)c1` [N-{2-[(3-aminobenzyl)thio]-5-chlorophenyl}-2,4-difluorobenzenesulfonamide] and `Nc1cccc(CSc2ccc(Cl)cc2NS(=O)(=O)c2ccc(Cl)cc2F)c1` [N-{2-[(3-aminobenzyl)thio]-5-chlorophenyl}-4-chloro-2-fluorobenzenesulfonamide] are within 1.5-fold of each other in IC50: 3.24 µM for the first, 2.82 µM for the second.

Compared with `Nc1cccc(CSc2ccc(Cl)cc2NS(=O)(=O)c2cccc(Cl)c2)c1` [N-{2-[(3-aminobenzyl)thio]-5-chlorophenyl}-3-chlorobenzenesulfonamide], `Nc1cccc(CSc2ccc(Cl)cc2NS(=O)(=O)c2ccc(Cl)cc2)c1` [N-{2-[(3-aminobenzyl)thio]-5-chlorophenyl}-4-chlorobenzenesulfonamide] is 2.7-fold higher in IC50: 1.46 µM for the first, 3.89 µM for the second. The first is the more potent here.

Going from `Nc1cccc(CSc2ccc(Cl)cc2NS(=O)(=O)c2ccccc2)c1` [N-{2-[(3-aminobenzyl)thio]-5-chlorophenyl}benzenesulfonamide] to `COc1ccc(SCc2cccc(N)c2)c(NS(=O)(=O)c2cc3ccccc3o2)c1` [N-{2-[(3-aminobenzyl)thio]-5-methoxyphenyl}-1-benzofuran-2-sulfonamide], the IC50 falls from 3.1 µM to 1.4 µM (2.2-fold). The second is the more potent here.
